Results reported in ChEMBL document CHEMBL1201862, “PubChem BioAssay data set” (2004).
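Compound exposure: 48 hours, 5 concentrations, 96-well plates. The concentration for 50% growth inhibition is given as GI50.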 Calls of active or inactive are those of the source. Rule as the data show it: active = GI50 up to about 1.1 µM and inactive = higher.

How the values were obtained:
Experiment in all cases: NCI-60 cell line screen, 48 h
UACC-257 = tested on: UACC-257
HT-29 = tested on: HT-29
HCT-116 = tested on: HCT-116
OVCAR-3 = tested on: OVCAR-3
KM12 = tested on: KM12
SK-MEL-5 = tested on: SK-MEL-5
CCRF-CEM = tested on: CCRF-CEM
OVCAR-4 = tested on: OVCAR-4
COLO 205 = tested on: COLO 205
IGROV-1 = tested on: IGROV-1
SF-268 = tested on: SF-268
A549 = tested on: A549
SNB-19 = tested on: SNB-19
SW-620 = tested on: SW-620
RXF 393 = tested on: RXF 393
LOX IMVI = tested on: LOX IMVI
SK-OV-3 = tested on: SK-OV-3
SK-MEL-28 = tested on: SK-MEL-28
NCI-H460 = tested on: NCI-H460
UACC-62 = tested on: UACC-62

Measured: GI50

COc1ccc(CCn2nccc2C)cc1
inactive: UACC-257 > 100 µM | HT-29 > 100 µM | HCT-116 > 100 µM | OVCAR-3 > 100 µM | KM12 > 100 µM | SK-MEL-5 > 100 µM | CCRF-CEM > 100 µM | OVCAR-4 > 100 µM | COLO 205 > 100 µM | IGROV-1 > 100 µM | SF-268 > 100 µM | A549 > 100 µM | SNB-19 > 100 µM | SW-620 > 100 µM | RXF 393 > 100 µM | LOX IMVI > 100 µM | SK-OV-3 > 100 µM | SK-MEL-28 > 100 µM | NCI-H460 > 100 µM | UACC-62 > 100 µM

COc1ccccc1NC(=O)C(=O)C(C(=O)c1ccccc1F)C1OC(=O)c2ccccc21 (centres undefined)
inactive: UACC-257 54.8 µM | HT-29 23.9 µM | HCT-116 22 µM | KM12 30.1 µM | SK-MEL-5 39.1 µM | CCRF-CEM 16.1 µM | OVCAR-4 28.1 µM | COLO 205 19.2 µM | IGROV-1 52.6 µM | SF-268 29.9 µM | A549 45.3 µM | SNB-19 19.3 µM | SW-620 32.9 µM | RXF 393 42.9 µM | LOX IMVI 20.8 µM | SK-OV-3 35.6 µM | SK-MEL-28 46.3 µM | NCI-H460 25.8 µM | UACC-62 15.8 µM

CC1(Cl)CC2C(CC1Sc1nnnn1-c1ccccc1)C2(C)C (centres undefined)
inactive: UACC-257 87.3 µM | HT-29 > 100 µM | HCT-116 69.8 µM | OVCAR-3 38.7 µM | KM12 55.6 µM | SK-MEL-5 58.2 µM | CCRF-CEM 36.7 µM | OVCAR-4 > 100 µM | COLO 205 83.8 µM | IGROV-1 > 100 µM | SF-268 > 100 µM | A549 67.1 µM | SNB-19 83.2 µM | SW-620 > 100 µM | RXF 393 48.9 µM | LOX IMVI > 100 µM | SK-MEL-28 > 100 µM | NCI-H460 89.9 µM | UACC-62 98.9 µM

Cc1ccc(SSCCCCCS(=O)O)cc1
inactive: UACC-257 31.2 µM | HT-29 37.8 µM | HCT-116 14.6 µM | OVCAR-3 22.2 µM | KM12 36.1 µM | CCRF-CEM 4.68 µM | OVCAR-4 40 µM | SF-268 14.6 µM | SNB-19 35.4 µM | RXF 393 15.4 µM | LOX IMVI 16.8 µM | SK-OV-3 > 100 µM | SK-MEL-28 46.5 µM | NCI-H460 48.5 µM | UACC-62 23.5 µM

CSCC[C@@H](NC(=O)[C@H](CC(C)C)NC(=O)C(Cc1cnc[nH]1)NC(=O)CNC(=O)[C@@H](NC(=O)[C@H](C)NC(=O)[C@H](Cc1cn(C=O)c2ccccc12)NC(=O)[C@H](CCC(N)=O)NC(=O)[C@@H](N)CC(N)=O)C(C)C)C(N)=O (some centres undefined)
inactive: UACC-257 > 100 µM | HT-29 > 100 µM | HCT-116 > 100 µM | OVCAR-3 > 100 µM | KM12 > 100 µM | SK-MEL-5 > 100 µM | CCRF-CEM > 100 µM | OVCAR-4 > 100 µM | COLO 205 > 100 µM | IGROV-1 > 100 µM | SF-268 > 100 µM | A549 > 100 µM | SNB-19 > 100 µM | SW-620 > 100 µM | RXF 393 > 100 µM | LOX IMVI 53.8 µM | SK-OV-3 > 100 µM | SK-MEL-28 > 100 µM | NCI-H460 > 100 µM | UACC-62 > 100 µM

NCCCCCC(CCN)SCC1OC(n2cnc3c(N)ncnc32)C(O)C1O (centres undefined)
inactive: UACC-257 > 1260 µM | HT-29 569 µM | HCT-116 233 µM | OVCAR-3 > 1500 µM | KM12 416 µM | SK-MEL-5 > 1110 µM | CCRF-CEM 891 µM | OVCAR-4 > 1440 µM | COLO 205 > 798 µM | IGROV-1 1180 µM | SF-268 1460 µM | A549 > 1500 µM | SNB-19 615 µM | SW-620 > 1500 µM | RXF 393 1060 µM | LOX IMVI > 1060 µM | SK-OV-3 927 µM | SK-MEL-28 578 µM | NCI-H460 379 µM | UACC-62 537 µM

COc1ccccc1-c1cc(O)c2cc(C)cnc2n1
inactive: UACC-257 38 µM | HT-29 23.1 µM | KM12 5.5 µM | CCRF-CEM 17.2 µM | OVCAR-4 > 100 µM | COLO 205 14.8 µM | IGROV-1 16.4 µM | SF-268 52.7 µM | A549 51.6 µM | SNB-19 71.9 µM | SW-620 24.7 µM | RXF 393 33.4 µM | LOX IMVI 46 µM | SK-OV-3 25.3 µM | SK-MEL-28 22.6 µM | UACC-62 31.8 µM
